Results reported in US20220323416A1, “Ferroportin-Inhibitors For The Use In The Prevention And Treatment Of Kidney Injuries” (Vifor (International) AG, priority 2019, published 2022).

How the values were obtained:
C57BL/6 mice = test: Reduction of serum iron by Fpn127 in C57BL/6 mice; type: in vivo, mouse; details: naïve C57BL/6 mice; for Serum iron: 4 h post dosing; for Serum iron (hypoferremia sustained): 8 h post dosing
Experimental: FIG. 2: Serum iron levels in naïve C57BL/6 mice treated with Fpn127 at 120 mg/kg or 300 mg/kg for 4 h or 8 h. Vehicle was 0.5% methylcellulose in water
To determine the dose of Fpn127 that causes sustained serum iron reduction, C57BL/6 mice received either 120 mg/kg or 300 mg/kg of Fpn127 po for 4 h or 8 h.

guinea pigs = details: cited from earlier work
[1] = i.v. dosing after RBC transfusion

Compound | Serum iron (C57BL/6 mice; 120 mg/kg po) | Serum iron (hypoferremia sustained) (C57BL/6 mice; 120 mg/kg po) | Serum iron (C57BL/6 mice; 300 mg/kg po) | Serum iron (hypoferremia sustained) (C57BL/6 mice; 300 mg/kg po) | Hb levels following exchange transfusion (guinea pigs; [1]) | NTBI levels following exchange transfusion (guinea pigs; [1]) | Total iron in kidneys following transfusion (guinea pigs; [1]) | Occurrence of changes in plasma creatinine >0.3 mg/dL (indicator of early AKI) (guinea pigs; i.v. dosing, transfused animals) | Cellular injury (guinea pigs; i.v. immediately after acute red blood cell transfusions)
O=C(NCc1ncccc1F)c1coc(CCNCCc2nc3ccccc3[nH]2)n1 [Fpn127] | reduced significantly | only the dose of 300 mg/kg sustained the hypoferremia | reduced significantly | sustained the hypoferremia |  |  |  |  | 
O=C(NCc1ncccc1F)c1csc(CCNCc2nc3ccccc3[nH]2)n1 [VIT-2653] |  |  |  |  | significantly improved | significantly improved | can be reduced | significantly reduced | attenuation of cellular injury
